# From the supplement of paper PMC6315032
# Assays:
# Test in all cases: apparent dissociation constant (pKDapp, Kinobeads competition, Cheng-Prusoff corrected) (-log10 M); higher = tighter binding
# SLK = SLK (UniProt Q9H2G2); details: affinity matrix / lysate: Kinobeads, mixed HEK293/K-562/placenta lysate
# AKT2 = AKT2 (UniProt P31751); details: affinity matrix / lysate: Kinobeads, mixed HEK293/K-562/placenta lysate
# NEK2 = NEK2 (UniProt P51955); details: affinity matrix / lysate: Kinobeads, mixed HEK293/K-562/placenta lysate
# BMPR1B = BMPR1B (UniProt O00238); details: affinity matrix / lysate: Kinobeads, mixed HEK293/K-562/placenta lysate
# Chain of BMPR1B (O00238 whole entry): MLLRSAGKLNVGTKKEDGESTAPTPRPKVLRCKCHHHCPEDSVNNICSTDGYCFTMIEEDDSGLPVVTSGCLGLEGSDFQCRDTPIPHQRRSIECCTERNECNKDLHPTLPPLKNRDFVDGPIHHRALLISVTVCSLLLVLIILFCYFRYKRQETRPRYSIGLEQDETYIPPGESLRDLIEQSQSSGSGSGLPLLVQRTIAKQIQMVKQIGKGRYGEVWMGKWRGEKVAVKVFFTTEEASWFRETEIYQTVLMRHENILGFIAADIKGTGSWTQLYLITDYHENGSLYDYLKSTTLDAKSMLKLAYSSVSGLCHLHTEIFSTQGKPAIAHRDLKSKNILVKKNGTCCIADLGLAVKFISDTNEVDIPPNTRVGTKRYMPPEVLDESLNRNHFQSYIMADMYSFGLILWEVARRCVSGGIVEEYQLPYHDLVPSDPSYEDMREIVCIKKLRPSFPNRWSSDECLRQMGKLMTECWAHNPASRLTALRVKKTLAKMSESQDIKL
# EGFR = EGFR (UniProt P00533); details: affinity matrix / lysate: Kinobeads, mixed HEK293/K-562/placenta lysate
# EIF2AK4 = EIF2AK4 (UniProt Q9P2K8); details: affinity matrix / lysate: Kinobeads, mixed HEK293/K-562/placenta lysate
# CDC42BPB = CDC42BPB (UniProt Q9Y5S2); details: affinity matrix / lysate: Kinobeads, mixed HEK293/K-562/placenta lysate
# STRADA = STRADA (UniProt Q7RTN6); details: affinity matrix / lysate: Kinobeads, mixed HEK293/K-562/placenta lysate
# Chain of STRADA (Q7RTN6 whole entry): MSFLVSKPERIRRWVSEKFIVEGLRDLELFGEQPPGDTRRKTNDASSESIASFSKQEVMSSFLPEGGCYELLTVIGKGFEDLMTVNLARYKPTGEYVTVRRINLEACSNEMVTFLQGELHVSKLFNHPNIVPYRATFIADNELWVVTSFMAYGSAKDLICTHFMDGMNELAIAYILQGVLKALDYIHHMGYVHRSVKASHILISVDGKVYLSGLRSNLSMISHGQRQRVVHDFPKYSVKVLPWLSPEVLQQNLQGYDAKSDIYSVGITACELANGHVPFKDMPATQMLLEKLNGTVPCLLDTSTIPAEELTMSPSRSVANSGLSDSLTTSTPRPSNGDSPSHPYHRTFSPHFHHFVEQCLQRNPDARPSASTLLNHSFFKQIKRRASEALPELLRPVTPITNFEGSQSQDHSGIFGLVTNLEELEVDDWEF
# PRKDC = PRKDC (UniProt P78527); details: affinity matrix / lysate: Lipid Kinobeads, mixed HeLa/Jurkat/K-562 lysate
# KSR1 = KSR1 (UniProt Q8IVT5); details: affinity matrix / lysate: Kinobeads, mixed HEK293/K-562/placenta lysate
# PRKCZ = PRKCZ (UniProt Q05513); details: affinity matrix / lysate: Kinobeads, mixed HEK293/K-562/placenta lysate
# Chain of PRKCZ (Q05513 whole entry): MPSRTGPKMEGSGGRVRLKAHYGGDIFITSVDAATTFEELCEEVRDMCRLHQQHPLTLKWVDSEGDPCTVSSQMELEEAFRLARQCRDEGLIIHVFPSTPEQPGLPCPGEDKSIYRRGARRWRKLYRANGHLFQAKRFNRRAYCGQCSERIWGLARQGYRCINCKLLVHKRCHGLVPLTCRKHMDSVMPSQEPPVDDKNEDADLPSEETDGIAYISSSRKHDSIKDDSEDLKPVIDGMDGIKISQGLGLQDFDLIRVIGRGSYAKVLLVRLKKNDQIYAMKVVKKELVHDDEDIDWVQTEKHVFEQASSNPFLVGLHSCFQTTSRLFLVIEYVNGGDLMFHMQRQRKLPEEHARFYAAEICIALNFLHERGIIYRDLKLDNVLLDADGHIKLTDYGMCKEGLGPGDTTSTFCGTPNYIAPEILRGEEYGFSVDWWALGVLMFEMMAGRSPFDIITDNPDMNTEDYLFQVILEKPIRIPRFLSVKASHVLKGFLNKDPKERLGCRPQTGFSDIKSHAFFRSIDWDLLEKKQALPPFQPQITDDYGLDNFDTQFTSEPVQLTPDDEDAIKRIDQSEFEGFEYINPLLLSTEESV
# LIMK2 = LIMK2 (UniProt P53671); details: affinity matrix / lysate: Kinobeads, mixed HEK293/K-562/placenta lysate
# BRSK2 = BRSK2 (UniProt Q8IWQ3); details: affinity matrix / lysate: Kinobeads, mixed HEK293/K-562/placenta lysate
# Chain of BRSK2 (Q8IWQ3 whole entry): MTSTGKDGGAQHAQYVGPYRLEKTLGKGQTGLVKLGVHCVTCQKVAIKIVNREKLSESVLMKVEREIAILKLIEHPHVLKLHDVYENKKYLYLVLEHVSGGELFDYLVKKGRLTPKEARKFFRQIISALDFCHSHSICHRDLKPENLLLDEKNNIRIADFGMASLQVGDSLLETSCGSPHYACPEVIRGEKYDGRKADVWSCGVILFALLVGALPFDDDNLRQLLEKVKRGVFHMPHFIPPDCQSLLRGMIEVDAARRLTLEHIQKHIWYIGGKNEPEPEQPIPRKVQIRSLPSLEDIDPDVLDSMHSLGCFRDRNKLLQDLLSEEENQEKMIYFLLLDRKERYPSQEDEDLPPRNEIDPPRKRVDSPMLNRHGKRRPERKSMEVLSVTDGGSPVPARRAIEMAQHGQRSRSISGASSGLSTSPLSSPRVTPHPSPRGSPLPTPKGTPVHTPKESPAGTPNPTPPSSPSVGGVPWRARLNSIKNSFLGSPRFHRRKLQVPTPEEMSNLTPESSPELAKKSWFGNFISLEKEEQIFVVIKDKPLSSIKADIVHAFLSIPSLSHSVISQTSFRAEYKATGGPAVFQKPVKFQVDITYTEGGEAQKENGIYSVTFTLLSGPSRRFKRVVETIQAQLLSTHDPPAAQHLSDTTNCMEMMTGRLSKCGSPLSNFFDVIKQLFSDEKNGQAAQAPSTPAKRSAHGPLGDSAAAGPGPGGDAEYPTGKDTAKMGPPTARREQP
# MARK1 = MARK1 (UniProt Q9P0L2); details: affinity matrix / lysate: Kinobeads, mixed HEK293/K-562/placenta lysate
# CHUK = CHUK (UniProt O15111); details: affinity matrix / lysate: Kinobeads, mixed HEK293/K-562/placenta lysate
# CSNK1E = CSNK1E (UniProt P49674); details: affinity matrix / lysate: Kinobeads, mixed HEK293/K-562/placenta lysate
# PHKG2 = PHKG2 (UniProt P15735); details: affinity matrix / lysate: Kinobeads, mixed HEK293/K-562/placenta lysate
# Chain of PHKG2 (P15735 whole entry): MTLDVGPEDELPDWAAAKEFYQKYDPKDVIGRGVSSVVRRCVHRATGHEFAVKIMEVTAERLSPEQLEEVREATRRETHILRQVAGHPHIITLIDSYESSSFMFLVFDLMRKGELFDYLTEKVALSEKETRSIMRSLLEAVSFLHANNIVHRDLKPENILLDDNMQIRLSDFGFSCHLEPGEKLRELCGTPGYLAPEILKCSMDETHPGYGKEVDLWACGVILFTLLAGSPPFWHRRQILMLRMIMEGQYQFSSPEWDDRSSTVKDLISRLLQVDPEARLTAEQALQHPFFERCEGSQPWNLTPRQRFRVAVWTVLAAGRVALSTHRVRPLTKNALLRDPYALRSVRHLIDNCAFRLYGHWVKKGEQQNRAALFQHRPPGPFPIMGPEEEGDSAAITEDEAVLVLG
# CDK10 = CDK10 (UniProt Q15131); details: affinity matrix / lysate: Kinobeads, mixed HEK293/K-562/placenta lysate
# TESK2 = TESK2 (UniProt Q96S53); details: affinity matrix / lysate: Kinobeads, mixed HEK293/K-562/placenta lysate
# KIT = KIT (UniProt P10721); details: affinity matrix / lysate: Kinobeads, mixed HEK293/K-562/placenta lysate
# EIF2AK1 = EIF2AK1 (UniProt Q9BQI3); details: affinity matrix / lysate: Kinobeads, mixed HEK293/K-562/placenta lysate
# NLK = NLK (UniProt Q9UBE8); details: affinity matrix / lysate: Kinobeads, mixed HEK293/K-562/placenta lysate
# Chain of NLK (Q9UBE8 whole entry): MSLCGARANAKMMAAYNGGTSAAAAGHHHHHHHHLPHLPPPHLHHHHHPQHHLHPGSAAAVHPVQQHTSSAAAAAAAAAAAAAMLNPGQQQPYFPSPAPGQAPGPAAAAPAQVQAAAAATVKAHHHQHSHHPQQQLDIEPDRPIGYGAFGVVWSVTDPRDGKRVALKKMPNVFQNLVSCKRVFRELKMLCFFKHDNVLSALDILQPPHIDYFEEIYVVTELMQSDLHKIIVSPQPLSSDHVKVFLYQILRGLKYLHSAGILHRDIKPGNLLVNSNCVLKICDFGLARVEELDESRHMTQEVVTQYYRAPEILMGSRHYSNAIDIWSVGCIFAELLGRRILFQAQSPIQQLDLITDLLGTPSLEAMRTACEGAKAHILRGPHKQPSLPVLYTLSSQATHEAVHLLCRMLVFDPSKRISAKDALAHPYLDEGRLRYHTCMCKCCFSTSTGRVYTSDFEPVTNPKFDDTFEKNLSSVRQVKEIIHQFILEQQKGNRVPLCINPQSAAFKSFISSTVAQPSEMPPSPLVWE
# TGFBR1 = TGFBR1 (UniProt P36897); details: affinity matrix / lysate: Kinobeads, mixed HEK293/K-562/placenta lysate
# NEK7 = NEK7 (UniProt Q8TDX7); details: affinity matrix / lysate: Kinobeads, mixed HEK293/K-562/placenta lysate
# Chain of NEK7 (Q8TDX7 whole entry, looked up): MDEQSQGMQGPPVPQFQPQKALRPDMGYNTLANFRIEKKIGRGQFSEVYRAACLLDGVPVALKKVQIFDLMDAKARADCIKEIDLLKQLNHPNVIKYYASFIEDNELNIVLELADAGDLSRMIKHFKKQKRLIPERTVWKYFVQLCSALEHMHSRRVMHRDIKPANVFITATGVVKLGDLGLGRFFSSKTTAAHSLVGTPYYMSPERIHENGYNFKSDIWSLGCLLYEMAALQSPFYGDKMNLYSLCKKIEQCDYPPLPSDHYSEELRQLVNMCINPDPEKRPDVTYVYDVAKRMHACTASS
# MAPK9 = MAPK9 (UniProt P45984); details: affinity matrix / lysate: Kinobeads, mixed HEK293/K-562/placenta lysate
# PDGFRA = PDGFRA (UniProt P16234); details: affinity matrix / lysate: Kinobeads, mixed HEK293/K-562/placenta lysate
# EPHA7 = EPHA7 (UniProt Q15375); details: affinity matrix / lysate: Kinobeads, mixed HEK293/K-562/placenta lysate
# Chain of EPHA7 (Q15375 whole entry, looked up): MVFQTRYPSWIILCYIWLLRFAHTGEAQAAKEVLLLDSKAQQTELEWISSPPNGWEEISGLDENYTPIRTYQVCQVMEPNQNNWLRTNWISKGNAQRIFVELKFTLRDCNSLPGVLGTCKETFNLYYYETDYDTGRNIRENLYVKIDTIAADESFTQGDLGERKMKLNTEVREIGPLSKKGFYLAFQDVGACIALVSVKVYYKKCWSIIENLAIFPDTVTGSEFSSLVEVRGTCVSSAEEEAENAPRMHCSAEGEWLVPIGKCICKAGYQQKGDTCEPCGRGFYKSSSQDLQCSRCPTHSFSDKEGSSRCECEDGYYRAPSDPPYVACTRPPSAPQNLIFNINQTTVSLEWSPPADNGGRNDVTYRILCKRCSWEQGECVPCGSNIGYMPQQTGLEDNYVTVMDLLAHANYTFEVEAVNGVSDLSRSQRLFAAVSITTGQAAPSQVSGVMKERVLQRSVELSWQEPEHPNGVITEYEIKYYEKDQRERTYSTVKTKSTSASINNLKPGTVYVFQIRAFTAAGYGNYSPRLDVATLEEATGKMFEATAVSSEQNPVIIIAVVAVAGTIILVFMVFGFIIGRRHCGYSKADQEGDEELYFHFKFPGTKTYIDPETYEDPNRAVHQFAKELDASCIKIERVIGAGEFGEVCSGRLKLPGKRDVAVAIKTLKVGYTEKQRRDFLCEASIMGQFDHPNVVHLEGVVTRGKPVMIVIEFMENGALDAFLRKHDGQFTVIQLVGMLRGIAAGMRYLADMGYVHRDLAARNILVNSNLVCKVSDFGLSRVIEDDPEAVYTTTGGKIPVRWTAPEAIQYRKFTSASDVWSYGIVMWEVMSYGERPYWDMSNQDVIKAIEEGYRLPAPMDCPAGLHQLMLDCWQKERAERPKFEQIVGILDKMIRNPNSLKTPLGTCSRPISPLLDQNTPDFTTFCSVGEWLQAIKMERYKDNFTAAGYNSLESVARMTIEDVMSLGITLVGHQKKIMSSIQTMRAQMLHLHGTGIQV
# HCK = HCK (UniProt P08631); details: affinity matrix / lysate: Kinobeads, mixed HEK293/K-562/placenta lysate
# Chain of HCK (P08631 whole entry, looked up): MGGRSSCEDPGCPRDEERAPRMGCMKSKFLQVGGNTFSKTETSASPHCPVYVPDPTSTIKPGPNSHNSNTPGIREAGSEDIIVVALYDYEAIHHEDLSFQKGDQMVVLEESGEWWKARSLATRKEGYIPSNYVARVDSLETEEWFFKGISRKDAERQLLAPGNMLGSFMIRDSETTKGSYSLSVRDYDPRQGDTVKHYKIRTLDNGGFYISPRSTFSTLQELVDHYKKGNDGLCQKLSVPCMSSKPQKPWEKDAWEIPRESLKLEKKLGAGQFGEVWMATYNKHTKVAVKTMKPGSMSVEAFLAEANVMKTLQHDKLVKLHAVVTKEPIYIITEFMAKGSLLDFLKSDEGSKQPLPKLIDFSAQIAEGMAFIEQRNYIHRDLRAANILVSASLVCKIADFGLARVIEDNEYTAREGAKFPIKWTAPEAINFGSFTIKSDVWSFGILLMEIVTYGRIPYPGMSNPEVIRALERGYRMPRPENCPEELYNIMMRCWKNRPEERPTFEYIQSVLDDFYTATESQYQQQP
# PDGFRB = PDGFRB (UniProt P09619); details: affinity matrix / lysate: Kinobeads, mixed HEK293/K-562/placenta lysate
# CSF1R = CSF1R (UniProt P07333); details: affinity matrix / lysate: Kinobeads, mixed HEK293/K-562/placenta lysate
# EPHA2 = EPHA2 (UniProt P29317); details: affinity matrix / lysate: Kinobeads, mixed HEK293/K-562/placenta lysate
# MELK = MELK (UniProt Q14680); details: affinity matrix / lysate: Kinobeads, mixed HEK293/K-562/placenta lysate
# LOC100128443 = details: affinity matrix / lysate: Kinobeads, mixed HEK293/K-562/placenta lysate
apparent dissociation constant (-log10 M) (SLK),apparent dissociation constant (-log10 M) (AKT2),apparent dissociation constant (-log10 M) (NEK2),apparent dissociation constant (-log10 M) (BMPR1B),apparent dissociation constant (-log10 M) (EGFR),apparent dissociation constant (-log10 M) (EIF2AK4),apparent dissociation constant (-log10 M) (CDC42BPB),apparent dissociation constant (-log10 M) (STRADA),apparent dissociation constant (-log10 M) (PRKDC),apparent dissociation constant (-log10 M) (KSR1),apparent dissociation constant (-log10 M) (PRKCZ),apparent dissociation constant (-log10 M) (LIMK2),apparent dissociation constant (-log10 M) (BRSK2),apparent dissociation constant (-log10 M) (MARK1),apparent dissociation constant (-log10 M) (CHUK),apparent dissociation constant (-log10 M) (CSNK1E),apparent dissociation constant (-log10 M) (PHKG2),apparent dissociation constant (-log10 M) (CDK10),apparent dissociation constant (-log10 M) (TESK2),apparent dissociation constant (-log10 M) (KIT),apparent dissociation constant (-log10 M) (EIF2AK1),apparent dissociation constant (-log10 M) (NLK),apparent dissociation constant (-log10 M) (TGFBR1),apparent dissociation constant (-log10 M) (NEK7),apparent dissociation constant (-log10 M) (MAPK9),apparent dissociation constant (-log10 M) (PDGFRA),apparent dissociation constant (-log10 M) (EPHA7),apparent dissociation constant (-log10 M) (HCK),apparent dissociation constant (-log10 M) (PDGFRB),apparent dissociation constant (-log10 M) (CSF1R),apparent dissociation constant (-log10 M) (EPHA2),apparent dissociation constant (-log10 M) (MELK),apparent dissociation constant (-log10 M) (LOC100128443),SMILES
< 6,< 6,< 6,< 6,< 6,< 6,< 6,< 6,6.18,< 6,< 6,< 6,< 6,< 6,< 6,< 6,< 6,< 6,< 6,< 6,< 6,< 6,< 6,< 6,< 6,< 6,< 6,< 6,< 6,< 6,< 6,< 6,< 6,COc1ccc(-c2ccc3c(N4CCOC[C@@H]4C)nc(N4CCOC[C@@H]4C)nc3n2)cc1CO [AZD8055]
< 6,< 6,< 6,< 6,< 6,< 6,< 6,< 6,< 6,< 6,< 6,< 6,< 6,< 6,< 6,< 6,< 6,< 6,< 6,< 6,< 6,< 6,< 6,< 6,< 6,< 6,< 6,< 6,< 6,< 6,< 6,< 6,< 6,CCNC(=O)Nc1ccc(-c2nc(N3CCOC[C@@H]3C)c3c(n2)C(C)(C)S(=O)(=O)C3)cc1 [CZ415]
